Reference: ChEMBL document CHEMBL5104180, “Design, Synthesis, and Evaluation of New Sugar-Substituted Imidazole Derivatives as Selective c-MYC Transcription Repressors Targeting the Promoter G-Quadruplex” (J Med Chem, 2022)
The source made the active and inactive calls. The calls are words filed in the database; no cut-off is given here.

Key:
Quadruplex DNA [1] = experiment: Stabilization of c-MYC G4 quadruplex DNA Pu22 (unknown origin) assessed as change in melting temperature at 2 uM by CD spectroscopy; type: nucleic-acid assay
Quadruplex DNA [2] = experiment: Binding affinity to c-MYC G4- quadruplex DNA Pu22 (unknown origin) assessed as binding constant by SPR analysis; type: nucleic-acid assay
[3] = Binding affinity to G-rich KRAS DNA (unknown origin) assessed as binding constant by SPR analysis
[4] = Binding affinity to G-rich HRAS DNA (unknown origin) assessed as binding constant by SPR analysis
[5] = Binding affinity to G-rich NRAS RNA (unknown origin) assessed as binding constant by SPR analysis
[6] = Binding affinity to human G-rich Htg22 DNA assessed as binding constant by SPR analysis
[7] = Binding affinity to Hairpin DNA (unknown origin) assessed as binding constant by SPR analysis
Quadruplex DNA [8] = experiment: Binding affinity to c-MYC G4 quadruplex DNA Pu22 (unknown origin) assessed as binding constant by SPR analysis; type: nucleic-acid assay
RNA = experiment: Binding affinity to NRAS RNA mutant (unknown origin) assessed as binding constant by SPR analysis
HepG2 [9] = experiment: Cytotoxicity against human HepG2 cells assessed as reduction in cell viability measured after 48 hrs by MTT assay; type: functional, cell-based; conditions: HepG2, 48 h
MDA-MB-231 [10] = experiment: Cytotoxicity against human MDA-MB-231 cells assessed as reduction in cell viability measured after 48 hrs by MTT assay; type: functional, cell-based; conditions: MDA-MB-231, 48 h
[11] = Cytotoxicity against human HBL-100 cells assessed as reduction in cell viability measured after 48 hrs by MTT assay; type: toxicity, cell-based
[12] = tested on: NM23-H2/c-MYC G4 quadruplex DNA; experiment: Disruption of NM23-H2/c-MYC G4 quadruplex DNA (unknown origin) interaction incubated for 1 hrs by ELISA; type: protein assay
[13] = tested on: BLM/c-MYC G4 quadruplex DNA; experiment: Disruption of BLM/c-MYC G4 quadruplex DNA (unknown origin) interaction incubated for 1 hrs by ELISA; type: protein assay
[14] = tested on: DHX36/c-MYC G4 quadruplex DNA; experiment: Disruption of DHX36/c-MYC G4 quadruplex DNA (unknown origin) interaction incubated for 1 hrs by ELISA; type: protein assay
Quadruplex DNA [15] = experiment: Binding affinity to 5' FAM-labeled c-MYC G4 quadruplex DNA Pu22 (unknown origin) by fluorescence quench assay; type: nucleic-acid assay
Quadruplex DNA [16] = experiment: Binding affinity to 3' FAM-labeled c-MYC G4 quadruplex DNA Pu22 (unknown origin) by fluorescence quench assay; type: nucleic-acid assay
MDA-MB-231 [17] = experiment: Cytotoxicity against human MDA-MB-231 cells measured after 48 hrs; type: functional, cell-based
Quadruplex DNA [18] = experiment: Inhibition of c-MYC G4 quadruplex DNA in HEK293T cells co-transfected with Renilla and firefly luciferase assessed as decrease in relative luciferase at 2.5 to 5 uM measured after 24 hrs by dual luciferase reporter assay; type: cell-based; conditions: Homo sapiens, dose 2.5-5 µM
Quadruplex DNA [19] = experiment: Inhibition of c-MYC G4 quadruplex DNA in HEK293T cells co-transfected with Renilla and firefly luciferase assessed as decrease in relative luciferase measured after 24 hrs by dual luciferase reporter assay; type: cell-based; conditions: Homo sapiens
MDA-MB-231 [20] = experiment: Cytotoxicity against human MDA-MB-231 cells assessed as reduction in cell viability measured after 24 hrs; type: functional, cell-based
MDA-MB-231 [21] = experiment: Downregulation of c-MYC mRNA level in human MDA-MB-231 cells measured after 24 hrs by RT-PCR analysis; type: functional, cell-based
MDA-MB-231 [22] = experiment: Downregulation of c-MYC expression in human MDA-MB-231 cells measured after 48 hrs by western blot analysis; type: functional, cell-based
[23] = tested on: NM23-H2/c-MYC G4 quadruplex DNA (Homo sapiens); experiment: Disruption of NM23-H2/c-MYC G4 quadruplex DNA interaction in MDA-MB-231 cells; type: cell-based
Quadruplex DNA [24] = experiment: Inhibition of c-MYC G4 quadruplex DNA in human MDA-MB-231 cells assessed as decrease in c-MYC immunoprecipitation at 1.25 to 5 uM measured after 24 hrs by chromatin immunoprecipitation assay; type: cell-based; conditions: dose 1.25-5 µM
MCF7 = experiment: Cytotoxicity against human MCF7 cells measured after 48 hrs; type: functional, cell-based
HepG2 [25] = experiment: Cytotoxicity against human HepG2 cells measured after 48 hrs; type: functional, cell-based
SiHa = experiment: Cytotoxicity against human SiHa cells measured after 48 hrs; type: functional, cell-based
HBL-100 = experiment: Cytotoxicity against human HBL-100 cells measured after 48 hrs; type: toxicity, cell-based; conditions: hbl-100, 48 h
NCM460 = experiment: Cytotoxicity against human NCM460 cells measured after 48 hrs; type: toxicity, cell-based; conditions: ncm460, 48 h
MDA-MB-231 [26] = experiment: Anticancer activity against human MDA-MB-231 cells (OFP negative) expressing c-MYC G4 quadruplex DNA assessed as arrest of growth measured after 48 hrs by DAPI staining based orange fluorescent protein assay; type: functional, cell-based
MDA-MB-231 [27] = experiment: Inhibition of colony formation in human MDA-MB-231 cells at 0.125 to 5 uM assessed as reduction in colony formation incubated for 10 days and subsequent media replacement with compound for every 2 days by crystal violet staining based assay; type: functional, cell-based; conditions: dose 0.125-5 µM, time 10.0 day
MDA-MB-231 [28] = experiment: Inhibition of colony formation in human MDA-MB-231 cells at 5 uM assessed as reduction in colony formation incubated for 10 days and subsequent media replacement with compound for every 2 days by crystal violet staining based assay; type: functional; conditions: MDA-MB-231, 240 h, time 10 day
MDA-MB-231 [29] = experiment: Antitumor activity against human MDA-MB-231 cells assessed as reduction in cell invasion measured after 24 hrs using crystal violet staining inverted microscope based transwell assay; type: functional; conditions: MDA-MB-231, 24 h
MDA-MB-231 [30] = experiment: Induction of cell cycle arrest in human MDA-MB-231 cells assessed as accumulation at sub G0 phase at 5 uM after 24 hrs by propidium iodide staining based flow cytometric analysis; type: functional
MDA-MB-231 [31] = experiment: Induction of apoptosis in human MDA-MB-231 cells assessed as early apoptosis at 5 uM measured after 24 hrs by AnnexinV/propidium iodide staining based flow cytometry; type: functional, cell-based
MDA-MB-231 [32] = experiment: Induction of apoptosis in human MDA-MB-231 cells assessed as necrosis at 5 uM measured after 24 hrs by AnnexinV/propidium iodide staining based flow cytometry; type: functional, cell-based
MDA-MB-231 [33] = experiment: Antitumor activity against human MDA-MB-231 cells xenografted in BALB/c-nu/nu mouse assessed as relative increment ratio at 2.5 mg/kg, ip measured for 24 days; type: functional; conditions: time 24 day
MDA-MB-231 [34] = experiment: Antitumor activity against human MDA-MB-231 cells xenografted in BALB/c-nu/nu mouse assessed as tumor growth inhibition at 2.5 mg/kg, ip measured for 24 days; type: functional; conditions: MDA-MB-231, 576 h, time 24 day, read-out: TGI
[35] = Toxicity in BALB/c-nu/nu mouse xenografted with human MDA-MB-231 cells assessed as change in body weight at 2.5 mg/kg, ip; type: organism-based; conditions: in vivo
[36] = Toxicity in BALB/c-nu/nu mouse xenografted with human MDA-MB-231 cells assessed as effect on anatomized heart viscera at 2.5 mg/kg, ip measured after 24 hrs; type: organism-based; conditions: in vivo
[37] = Toxicity in BALB/c-nu/nu mouse xenografted with human MDA-MB-231 cells assessed as effect on anatomized liver viscera at 2.5 mg/kg, ip measured after 24 hrs; type: organism-based; conditions: in vivo
[38] = Toxicity in BALB/c-nu/nu mouse xenografted with human MDA-MB-231 cells assessed as effect on anatomized spleen viscera at 2.5 mg/kg, ip measured after 24 hrs; type: organism-based; conditions: in vivo
[39] = Toxicity in BALB/c-nu/nu mouse xenografted with human MDA-MB-231 cells assessed as effect on anatomized lung viscera at 2.5 mg/kg, ip measured after 24 hrs; type: organism-based; conditions: in vivo
[40] = Toxicity in BALB/c-nu/nu mouse xenografted with human MDA-MB-231 cells assessed as effect on anatomized kidney viscera at 2.5 mg/kg, ip measured after 24 hrs; type: organism-based; conditions: in vivo
[41] = Toxicity in BALB/c-nu/nu mouse xenografted with human MDA-MB-231 cells assessed as side effects at 2.5 mg/kg, ip measured after 24 hrs; type: organism-based; conditions: in vivo
MDA-MB-231 [42] = experiment: Antitumor activity against human MDA-MB-231 cells xenografted in BALB/c-nu/nu mouse assessed as decrease in c-MYC expression in tumor tissue; type: functional, cell-based
MDA-MB-231 [43] = experiment: Induction of cell cycle arrest in human MDA-MB-231 cells assessed as decrease in accumulation at G2/M phase at 5 uM after 24 hrs by propidium iodide staining based flow cytometric analysis; type: functional
MDA-MB-231 [44] = experiment: Antitumor activity against human MDA-MB-231 cells xenografted in BALB/c-nu/nu mouse assessed as relative increment ratio at 1 mg/kg, ip measured for 24 days; type: functional; conditions: time 24 day
MDA-MB-231 [45] = experiment: Antitumor activity against human MDA-MB-231 cells xenografted in BALB/c-nu/nu mouse assessed as tumor growth inhibition at 1 mg/kg, ip measured for 24 days; type: functional; conditions: MDA-MB-231, 576 h, time 24 day, read-out: TGI

CCn1c2ccccc2c2cc(-c3nc(-c4ccc(N5CCN(C)CC5)cc4)c(-c4ccc(N5CCN(C)CC5)cc4)n3-c3ccc(OCCOCCOC4(C)O[C@H]5O[C@H](CO)[C@@H](O)[C@H](O)[C@H]5O4)cc3)ccc21 (single isomer, unassigned)
ΔTm (Quadruplex DNA [1]): 20.3 °C
Kd (Quadruplex DNA [2]): 3.8 µM
Kd [3]: 16.4 µM
Kd [4]: > 20 µM
Kd [5]: > 20 µM
Kd [6]: > 20 µM
Kd [7]: > 20 µM
Kd (Quadruplex DNA [8]): > 20 µM
Kd (RNA): > 20 µM
IC50 (HepG2 [9]): 5 µM
IC50 (MDA-MB-231 [10]): 3.9 µM
IC50 at 48 h [11]: > 100 µM
IC50 [12]: 0.16 µM
IC50 [13]: 2.3 µM
IC50 [14]: 7 µM
Kd (Quadruplex DNA [15]): 0.56 µM
Kd (Quadruplex DNA [16]): 2.94 µM
Activity (MDA-MB-231 [17]): Active
inhibition (Quadruplex DNA [18]): Active
Activity (Quadruplex DNA [19]): Active
Activity (MDA-MB-231 [20]): Active
Activity (MDA-MB-231 [21]): Active
Activity (MDA-MB-231 [22]): Active
Activity [23]: Active
inhibition (Quadruplex DNA [24]): Active
Activity (MCF7): Active
Activity (HepG2 [25]): Active
Activity (SiHa): Active
Activity (HBL-100): Toxic
Activity (NCM460): Toxic
Activity (MDA-MB-231 [26]): Active
inhibition (MDA-MB-231 [27]): Active
inhibition at 5 µM (MDA-MB-231 [28]): 100%
IC50 (MDA-MB-231 [29]): 7 µM
inhibition at 5 µM (MDA-MB-231 [30]): 20%
Activity (MDA-MB-231 [31]): Active
Activity (MDA-MB-231 [32]): Active
Activity (MDA-MB-231 [33]): 89.9%
inhibition in vivo at 2.5 mg/kg (MDA-MB-231 [34]): 87.8%
Activity [35]: Non-Toxic
Activity [36]: Non-Toxic
Activity [37]: Non-Toxic
Activity [38]: Non-Toxic
Activity [39]: Non-Toxic
Activity [40]: Non-Toxic
Activity [41]: Non-Toxic
Activity (MDA-MB-231 [42]): Active
Activity (MDA-MB-231 [43]): Active

COc1cccc2c1C(=O)c1c(O)c3c(c(O)c1C2=O)C[C@@](O)(C(=O)CO)C[C@@H]3O[C@H]1C[C@H](N)[C@H](O)[C@H](C)O1 [DOXORUBICIN]
Activity (MDA-MB-231 [44]): 85.4%
inhibition in vivo at 1 mg/kg (MDA-MB-231 [45]): 80.2%
